In patent US20230045509A1, “PHARMACEUTICAL COMPOSITIONS COMPRISING CABOTEGRAVIR” (ViiV Healthcare Company, priority 2019, published 2023):

How the values were obtained:
[1] = Wettability study to define limits of cabotegravir suspension strength; type: physicochemical
Method: Wettability of Cabotegravir in 38 mg/mL P338, 35 mg/mL PEG3350, and 20 mg/mL mannitol was assessed to estimate the approximate concentration limit for Cabotegravir suspension in this vehicle. This was performed by adding increasing amounts of Cab to 5 g of vehicle until a gross change in coarse suspension properties was observed.

[2] = test system: HIV-1 strains; settings: integrase strand transfer inhibitor; background statement; cited from earlier work

- Gross viscosity ([1]; 580† mg/mL Cabotegravir (calculated using approximated densities) in same vehicle): Boundary of thickening
- Gross viscosity ([1]; 600† mg/mL Cabotegravir (calculated using approximated densities) in same vehicle): Thicker, but flowable
- Gross viscosity ([1]; 635† mg/mL Cabotegravir (calculated using approximated densities) in same vehicle): Slightly paste-like
- upper boundary of Cabotegravir solid suspension concentration ([1]; vehicle 38 mg/mL P338, 35 mg/mL PEG3350, 20 mg/mL mannitol): ≤ 600 mg/mL
SMILES: C[C@H]1CO[C@@H]2Cn3cc(C(=O)NCc4ccc(F)cc4F)c(=O)c(O)c3C(=O)N12 [Cabotegravir, N-((2,4-Difluorophenyl)methyl)-6-hydroxy-3-methyl-5,7-dioxo-2,3,5,7,11,11a hexahydro(1,3)oxazolo(3,2-a)pyrido(1,2-d)pyrazine-8-carboxamide]
- potency [2]: subnanomolar potency
